Several values for one entry are separate records, joined by “and”; a condition that tells them apart may be missing. Identical values can stand only once.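 Method: 48-hour compound exposure of cells in 96-well plates, five concentrations, linear interpolation of endpoints. The concentration for 50% growth inhibition is given as GI50.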 Activity calls are given as the source filed them. Rule as the data show it: active = GI50 up to about 1.1 µM and inactive = higher.
Legend:
Assay in all cases: inhibition of tumour cell growth, NCI panel, 48 h
CAKI-1 = system: CAKI-1
MDA-N = system: MDA-N
TK-10 = system: TK-10
SK-OV-3 = system: SK-OV-3
KM12 = system: KM12
RPMI-8226 = system: RPMI-8226
OVCAR-3 = system: OVCAR-3
MDA-MB-435 = system: MDA-MB-435
DU-145 = system: DU-145
M14 = system: M14
SF-268 = system: SF-268
SNB-75 = system: SNB-75
HCC 2998 = system: HCC 2998
MCF7 = system: MCF7
NCI/ADR-RES = system: NCI/ADR-RES
SN12C = system: SN12C
NCI-H522 = system: NCI-H522
NCI-H226 = system: NCI-H226
IGROV-1 = system: IGROV-1
Hs-578T = system: Hs-578T
OVCAR-8 = system: OVCAR-8
T47D = system: T47D
BT-549 = system: BT-549
ACHN = system: ACHN
SK-MEL-28 = system: SK-MEL-28
SW-620 = system: SW-620
Malme-3M = system: Malme-3M
NCI-H23 = system: NCI-H23
HT-29 = system: HT-29
UACC-257 = system: UACC-257
RXF 393 = system: RXF 393
SF-295 = system: SF-295
SK-MEL-2 = system: SK-MEL-2
HCT-116 = system: HCT-116
UO-31 = system: UO-31
UACC-62 = system: UACC-62
COLO 205 = system: COLO 205
U-251 = system: U-251
EKVX = system: EKVX
SNB-19 = system: SNB-19
HOP-62 = system: HOP-62
K562 = system: K562
CCRF-CEM = system: CCRF-CEM
HOP-92 = system: HOP-92
NCI-H460 = system: NCI-H460
A549 = system: A549
OVCAR-4 = system: OVCAR-4
SR = system: SR
OVCAR-5 = system: OVCAR-5
A498 = system: A498
HL-60 = system: HL-60
SF-539 = system: SF-539
PC-3 = system: PC-3
786-0 = system: 786-0
HCT-15 = system: HCT-15
SK-MEL-5 = system: SK-MEL-5
MOLT-4 = system: MOLT-4

## CC(=O)c1c(-c2ccc(Cl)cc2)c(C#N)c(=S)n(C2OC(CO)C(O)C(O)C2O)c1-c1ccccc1 (stereo not drawn)
CAKI-1
  GI50: 45.2 µM (inactive) and > 89.1 µM (inactive)
MDA-N
  GI50: 80.7 µM (inactive) and 48.2 µM (inactive)
TK-10
  GI50: > 100 µM (inactive)
SK-OV-3
  GI50: > 100 µM (inactive)
KM12
  GI50: > 100 µM (inactive) and > 68.9 µM (inactive)
RPMI-8226
  GI50: 31.9 µM (inactive)
OVCAR-3
  GI50: > 80.4 µM (inactive) and 64.9 µM (inactive)
MDA-MB-435
  GI50: 77.6 µM (inactive)
DU-145
  GI50: > 100 µM (inactive) and > 93.3 µM (inactive)
M14
  GI50: > 100 µM (inactive)
SF-268
  GI50: 89.3 µM (inactive) and 61.5 µM (inactive)
SNB-75
  GI50: 14.7 µM (inactive)
HCC 2998
  GI50: > 100 µM (inactive) and > 83.8 µM (inactive)
MCF7
  GI50: > 100 µM (inactive) and > 71 µM (inactive)
NCI/ADR-RES
  GI50: > 100 µM (inactive) and 98.9 µM (inactive)
SN12C
  GI50: > 100 µM (inactive) and > 85.7 µM (inactive)
NCI-H522
  GI50: > 100 µM (inactive) and 53.8 µM (inactive)
NCI-H226
  GI50: 61.4 µM (inactive)
IGROV-1
  GI50: 62.8 µM (inactive)
Hs-578T
  GI50: > 100 µM (inactive)
OVCAR-8
  GI50: > 100 µM (inactive) and > 57.3 µM (inactive)
T47D
  GI50: > 82.6 µM (inactive)
BT-549
  GI50: > 100 µM (inactive)
ACHN
  GI50: 55.2 µM (inactive) and 45.5 µM (inactive)
SK-MEL-28
  GI50: 82.2 µM (inactive)
SW-620
  GI50: 59.6 µM (inactive)
Malme-3M
  GI50: > 100 µM (inactive)
NCI-H23
  GI50: > 100 µM (inactive)
HT-29
  GI50: > 100 µM (inactive) and 52.1 µM (inactive)
UACC-257
  GI50: > 100 µM (inactive)
RXF 393
  GI50: 83.4 µM (inactive) and 75.5 µM (inactive)
SF-295
  GI50: > 100 µM (inactive) and 70.6 µM (inactive)

## CCOc1ccc(NC(=O)/C(=N\NC(C)(C)C)C2C(=O)Nc3ccccc3[S+]2[O-])cc1 (stereo not drawn)
MDA-N
  GI50: > 100 µM (inactive)
TK-10
  GI50: > 100 µM (inactive)
SK-OV-3
  GI50: > 100 µM (inactive)
SK-MEL-2
  GI50: > 100 µM (inactive)
KM12
  GI50: > 100 µM (inactive)
HCT-116
  GI50: > 100 µM (inactive)
UO-31
  GI50: > 100 µM (inactive)
RPMI-8226
  GI50: 20.7 µM (inactive)
OVCAR-3
  GI50: > 100 µM (inactive)
MDA-MB-435
  GI50: > 100 µM (inactive)
DU-145
  GI50: > 100 µM (inactive)
UACC-62
  GI50: > 100 µM (inactive)
COLO 205
  GI50: > 100 µM (inactive)
M14
  GI50: > 100 µM (inactive)
U-251
  GI50: > 100 µM (inactive)
EKVX
  GI50: > 100 µM (inactive)
SF-268
  GI50: > 100 µM (inactive)
SNB-75
  GI50: > 100 µM (inactive)
HCC 2998
  GI50: > 100 µM (inactive)
SNB-19
  GI50: > 100 µM (inactive)
MCF7
  GI50: > 100 µM (inactive)
HOP-62
  GI50: > 100 µM (inactive)
NCI/ADR-RES
  GI50: > 100 µM (inactive)
SN12C
  GI50: > 100 µM (inactive)
NCI-H522
  GI50: > 100 µM (inactive)
K562
  GI50: > 100 µM (inactive)
NCI-H226
  GI50: > 100 µM (inactive)
CCRF-CEM
  GI50: 94.6 µM (inactive)
HOP-92
  GI50: > 100 µM (inactive)
IGROV-1
  GI50: > 100 µM (inactive)
Hs-578T
  GI50: > 100 µM (inactive)
NCI-H460
  GI50: > 100 µM (inactive)
OVCAR-8
  GI50: > 100 µM (inactive)
T47D
  GI50: > 100 µM (inactive)
A549
  GI50: > 100 µM (inactive)
OVCAR-4
  GI50: > 100 µM (inactive)
BT-549
  GI50: > 100 µM (inactive)
ACHN
  GI50: > 100 µM (inactive)
SR
  GI50: 45.1 µM (inactive)
SK-MEL-28
  GI50: > 100 µM (inactive)
OVCAR-5
  GI50: > 100 µM (inactive)
A498
  GI50: > 100 µM (inactive)
SW-620
  GI50: > 100 µM (inactive)
Malme-3M
  GI50: > 100 µM (inactive)
HL-60
  GI50: > 100 µM (inactive)
NCI-H23
  GI50: > 100 µM (inactive)
SF-539
  GI50: > 100 µM (inactive)
PC-3
  GI50: > 100 µM (inactive)
786-0
  GI50: > 100 µM (inactive)
HT-29
  GI50: > 100 µM (inactive)
UACC-257
  GI50: > 100 µM (inactive)
RXF 393
  GI50: > 100 µM (inactive)
HCT-15
  GI50: > 100 µM
SK-MEL-5
  GI50: > 100 µM (inactive)
SF-295
  GI50: > 100 µM (inactive)
MOLT-4
  GI50: > 100 µM (inactive)

From ChEMBL document CHEMBL1201862, “PubChem BioAssay data set” (2004)
